Assay results reported in US12194021B2, “Modified herbal compositions for neuromodulation” (University of Southern California, priority 2021, dated 2025).
Marks after values point to notes of the source that are not given here.

Experiments:
[1] = Anecdotal test of effects on sleep
Description: We did an Anecdotal Test of the Effects of DHM on Sleep. […] They were given combination-formula (Comb-D, 1 serving size), DHM (250 mg), or melatonin (10 mg). After a week, we started collecting their reported sleep duration.

mice = assay: Elevated plus maze (EPM), anxiolytic effect of combination form; type: in vivo; details: 45 min after oral administration, comb 0.5, 1, 2 serving size, diazepam 2 mg/kg
Description: Alternatively, the elevated plus maze for mice can consist of two opposing open (24×8 cm) and two enclosed arms (24×8×25 cm) connected by a central platform forming the shape of a plus sign. The dimensions of the central field which connects the open and closed arms are 8×8 cm. The plus maze was elevated to a height of 50 cm. Each mouse was immediately placed in the central square of the apparatus with the head facing one of the closed arms. Mice behavior during 5 min was observed and recorded by means of a video camera (Canon Digital, Japan), which was fixed to the wall above the elevated plus maze. In this test, the following parameters were detected and calculated: the number of entries (open arm entries and closed arm entries), % of open arm entries, and % of time spent in open arms.
Anxiolytic effect evaluation of combination form (comb). A characteristic of the anxiolytic effects of comb (0.5, 1, and 2 serving size) was evaluated by elevated plus maze (EPM) tests (Table 3; FIG. 6). The EPM is considered an etiologically valid assessment of anxiolytic/anxiety in rodents because it uses natural stimuli (fear of a novel, brightly lit open space, and fear of balancing on a relatively narrow, raised platform) to determine anxiety-like behavior in animals. Anxiolytics are known to exert their pharmacological action by causing an increase in GABAergic neurotransmission in the brain.
Statistical analysis: one-way ANOVA, followed by Holm-Sidak post hoc comparison. […] Data were expressed as the means ±SEM, (n=7/group) percentage of open arm entries or of time spent on open arms in mice given a 5-min test, 45 min after oral administration of comb (0.5, 1, 2 serving size), or vehicle.

GABAARs = assay: Whole-cell voltage-clamped recordings from hippocampal DGCs in slices (Itonic, mIPSCs); type: cell-based, rats; details: for GABAergic Itonic: basal Itonic 20 pA
Description: 2) Whole-Cell Patch-Clamp Recordings from Brain Slices. Transverse slices (400 lm) of dorsal hippocampus were obtained from wt and TG-SwDI mice (male, 20 months old) using a vibratome (VT 100; Technical Products International). Slices were perfused continuously with artificial CSF (ACSF) composed of the following (in mM): 125 NaCl, 2.5 KCl, 2 CaCl2, 2 MgCl2, 26 NaHCO3, and 10 D-glucose. The ACSF was bubbled continuously with 95% O2/5% CO2 to ensure adequate oxygenation of slices and a pH of 7.4 and kept at 34±0.5° C. for perfusion. TTX (0.5 μM), APV (40 μM), CNQX (10 μM), and CGP54626 (1 μM, GABABR antagonist) were added to ACSF to pharmacologically isolate GABAAR-mediated mIPSCs. Patch electrodes were filled with internal solution containing the following (in mM): 137 CsCl, 2 MgCl2, 1 CaCl2, 11 EGTA, 10 HEPES, and 3 ATP, pH adjusted to 7.30 with CsOH. Recordings targeted dentate gyms granule cells (DGCs) of hippocampal slices. Voltage-clamp whole-cell recording was performed using a patch clamp amplifier 3) EPM: All animals were tested anxiety levels on EPM. Animals were placed on the central area of the maze, tested for 5 min and video recorded. The following measures were scored: number of entries into open arms, closed arms, or center platform and time spent in each of these areas. Data were reported as % of number of entries in arms, % of time spent in different entries, and number of total entries.
To evaluate whether DHM-Piperidine Complex (D-P) can still potentiate GABAARs, whole-cell voltage-clamped recordings from hippocampal DGCs in slices were performed to test D-P and compared with DHM effects on GABAergic tonic current (Itonic) and miniature inhibitory postsynaptic currents (mIPSCs). […] Compared with DHM enhancing GABAergic Itonic from 20 pA (basal Itonic)→28 pA→31 pA→52 pA→55 pA, D-P enhancing GABAergic Itonic from 20 pA (basal Itonic)→35 pA→42 pA →65 pA→70 pA (Table 1).

gephyrin = details: previously reported (Liang et al., 2014); cited from earlier work

SMILES: COc1ccc2[nH]cc(CCNC(C)=O)c2c1 [melatonin]
- complaints (discomfort) ([1]; 10 mg oral daily): dizziness on the second day, loss of energy, and other feelings of discomfort
- time to show improvement in sleep ([1]; 10 mg oral daily): took a month
- sleep duration (average) ([1]; 10 mg oral daily, in 40% attendees): 4.3 ± 0.9 h
- dependence after finishing three-month test [1]: suffered withdrawal from the test

SMILES: CN1C(=O)CN=C(c2ccccc2)c2cc(Cl)ccc21 [diazepam]
- number of closed arm entries (mice): little effect
- total number of arm entries (mice): significantly increased
- percentage of open arm entries (mice; p<0.01): significantly elevated

SMILES: O=C1c2c(O)cc(O)cc2O[C@H](c2cc(O)c(O)c(O)c2)[C@H]1O [DHM, dihydromyricetin, reference compound]
- Itonic, percent in brackets (increase over basal) (GABAARs; 0.1 μM): (40%)*
- mIPSCs (area potentiated) (GABAARs; 0.1 μM): 5.0%
- GABAergic Itonic (GABAARs; 0.1 μM): 28 pA
- Itonic, percent in brackets (increase over basal) (GABAARs; 0.3 μM): (55%)*
- mIPSCs (area potentiated) (GABAARs; 0.3 μM): 13.3%*
- GABAergic Itonic (GABAARs; 0.3 μM): 31 pA
- Itonic, percent in brackets (increase over basal) (GABAARs; 1 μM): (160%)*
- mIPSCs (area potentiated) (GABAARs; 1 μM): 58.3%*
- GABAergic Itonic (GABAARs; 1 μM): 52 pA
- Itonic, percent in brackets (increase over basal) (GABAARs; 10 μM): (175%)*
- mIPSCs (area potentiated) (GABAARs; 10 μM): 53.3%*
- GABAergic Itonic (GABAARs; 10 μM): 55 pA
- sleep duration (average) ([1]; 250 mg oral daily): 5.5±0.65
- start of improvement of sleep ([1]; 250 mg oral daily): 1 to 7 days
- dependence after finishing three-month test [1]: without dependence
- GABAergic inhibitory transmission / gephyrin in TG mouse models (gephyrin): restores impaired GABAergic inhibitory transmission
